Experimental findings from patent US8648105B2, “Diarylthiohydantoin compounds” (The Regents of the University of California, priority 2006, dated 2014) are described below.

Data set [1] is described as follows: LogP. The data set is classed as physicochemical.
For data set [2], the target named is T1, AR (Homo sapiens, UniProt P10275).
T1 sequence (P10275 1-920): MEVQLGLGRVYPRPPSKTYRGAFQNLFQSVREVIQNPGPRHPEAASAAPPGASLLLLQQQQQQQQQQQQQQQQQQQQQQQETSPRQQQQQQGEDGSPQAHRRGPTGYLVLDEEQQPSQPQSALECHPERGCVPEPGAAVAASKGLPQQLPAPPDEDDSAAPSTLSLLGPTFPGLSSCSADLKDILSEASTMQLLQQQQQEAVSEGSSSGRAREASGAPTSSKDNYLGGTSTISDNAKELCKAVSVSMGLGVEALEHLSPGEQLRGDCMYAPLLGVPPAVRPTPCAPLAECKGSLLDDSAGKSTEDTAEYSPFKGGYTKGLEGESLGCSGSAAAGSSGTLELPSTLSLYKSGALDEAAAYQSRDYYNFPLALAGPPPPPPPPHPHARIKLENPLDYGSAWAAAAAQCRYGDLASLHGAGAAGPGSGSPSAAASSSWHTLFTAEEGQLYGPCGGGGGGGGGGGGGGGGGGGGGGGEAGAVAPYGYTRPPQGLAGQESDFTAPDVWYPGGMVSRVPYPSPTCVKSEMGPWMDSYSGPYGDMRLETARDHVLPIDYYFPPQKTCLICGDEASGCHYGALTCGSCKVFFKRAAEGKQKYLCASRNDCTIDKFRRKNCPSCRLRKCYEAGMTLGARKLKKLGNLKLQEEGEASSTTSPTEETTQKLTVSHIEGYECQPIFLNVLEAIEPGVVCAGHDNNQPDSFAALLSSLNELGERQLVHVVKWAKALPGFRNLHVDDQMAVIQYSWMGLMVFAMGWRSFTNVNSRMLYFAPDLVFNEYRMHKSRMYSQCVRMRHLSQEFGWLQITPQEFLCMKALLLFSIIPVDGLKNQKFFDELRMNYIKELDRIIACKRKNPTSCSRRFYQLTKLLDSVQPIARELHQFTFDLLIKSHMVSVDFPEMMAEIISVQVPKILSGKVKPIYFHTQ
The class given is cell-based. More on the design: Fold induction, AR response reporter. As for the experimental part: It is well established that PSA levels are indicators of AR activities in prostate cancer. […] The LNCaP-AR cells are a line of lymph node carcinoma of prostate cells transduced with a plasmid that makes express androgen receptors. […] After four days incubation, secreted PSA levels were assayed using PSA ELISA kits (American Qualex, San Clemente, Calif.)

The nature of data set [3]: Pharmacokinetics, drug concentration in mouse serum/plasma by HPLC. To be noted: in vivo.
Method: Mice were divided into groups of three for each time points. Two mice were not treated with drug and two other mice were treated with vehicle solution. Each group was treated with 10 mg per kilogram of body weight.
The drug was dissolved in a mixture 1:5:14 of DMSO:PEG400: H20. (Vehicle solution) and was administered into mice through the tail vein. The animals are warmed under a heat lamp for approximately 20 minutes prior to treatment to dilate their tail vein. […] After drug administration, the animals were euthanized via CO2 inhalation at different timepoints: 5 nm, 30 nm, 2 h, 6 h, 16 h. Animals were immediately bleed after exposure to CO2 via cardiac puncture (1 ml BD syringe+27 G ⅝ needle).
The samples for HPLC analysis were prepared according to the following procedure:
Blood cells were separated from serum by centrifugation.
To 400 μl of serum were added 80 μl of a 10 μM solution of an internal standard and 520 μl of acetonitrile. Precipitation occurred.
The mixture was vortexed for 3 minutes and then placed under ultrasound for 30 minutes.
The solid particles were filtered off or were separated by centrifugation.
The filtrate was dried under an argon flow to dryness.
Data set [4] deals with AR. The class given is cell-based. Conditions: FIG. 24. How it is done: (§1) The compounds were subjected to tests using an artificial AR response reporter system in a hormone refractory prostate cancer cell line. […] After two days of incubation, reporter activities were assayed.
Data set [5] in a line: Ranking of compounds in tiers for utility in treating prostate cancer.
From the text: The placement of compounds into tiers was based on available data coupled with analytical judgment. Data considered included in vitro assays (AR response reporter system in LNCaP cell line, PSA level measurement, MTS mitochondrial assay) and in vivo experiments (tumor size measured directly or by emission induced by luciferase reporter gene, pharmacokinetic assays based on blood plasma levels). Not every compound was subjected to each assay. Not all data that was generated is shown. Judgment was applied in ranking compounds relative to each other for their utility in treating prostate cancer, in particular when ranking two compounds for which the same experiments were not performed.
In data set [6] the target is T1, AR. The class given is cell-based. More on the design: Fold induction, AR response reporter. Conditions: LN-AR, absence of R1881. How it is done: Activities of AR response reporter were measured.
Data set [7] deals with T1, AR. The data set is classed as cell-based. More on the design: Fold induction, AR response reporter. Conditions: AR over expressed LNCaP, absence of R1881.
Data set [8] has as its target T1, AR. The class given is cell-based. More on the design: Fold induction, AR response reporter. Conditions: for inhibitory activity on AR response reporter: hormone refractory LNCaP-AR. How it is done:
as §1

Data set [9] relates to LIAR cell line. The experiment in a line: Luciferase activity of the LIAR cell line (FIG. 25). The data set is classed as cell-based. To be noted: 125 nmol to 1000 nmol. From the text:
FIG. 25 is a graph of luciferase activity of the LIAR cell line dosed with various compounds administered at concentrations ranging from 125 nmol to 1000 nmol.
The inventors have determined that what might appear to be a small change in the structure of hydantoin compounds may result in a large change in that compound's performance in treating prostate cancer.

In data set [10] the target is T2, androgen receptor (Homo sapiens, UniProt P10275, T878A).
T2 sequence (P10275 1-920 T878A): T1 sequence (P10275 1-920) with T878A
To be noted: 10 uM (R1881 1 nM), LNCaP.

In data set [11] the test system is MCF7. The experiment in a line: Growth effect on MCF7 cells. The class given is cell-based. Conditions: MCF7 breast cancer cells.
Data set [12] has as its system DU-145 cells. The experiment in a line: MTS growth assay in DU-145 cells. The data set is classed as cell-based. Conditions: DU-145, lacks AR expression. A general note: Tetrazolium assays rely on reduction of a dye to a coloured formazan, in cell work by metabolically active cells.
The test system of data set [13] is SkBr3. The experiment in a line: Growth effect on SkBr3 cells. The data set is classed as cell-based. Conditions: SkBr3 breast cancer cells.
For data set [14], the system named is 3T3. As to the kind of experiment: Growth effect on 3T3 cells. The data set is classed as cell-based. To be noted: 3T3 normal mouse fibroblast cell line.

Each structure is given as a SMILES string. Substitutions are numbered along the chain they refer to.

With `CNC(=O)CCCc1ccc(N2C(=S)N(c3ccc(C#N)c(C(F)(F)F)c3)C(=O)C23CCC3)cc1` [NC48, 4-{4-[7-(4-Cyano-3-trifluoromethylphenyl)-8-oxo-6-thioxo-5,7-diaza-spiro[3.4]oct-5-yl]-phenyl}-N-methyl-butyramide], the lipophilicity (logP) (commonly the decadic logarithm of the partition coefficient of the neutral form, usually between octanol and water) in data set [1] was 3.44. In addition, the “rank by relative PSA level, most active to least active” value in data set [2] (500 nM) is recorded as “NC50>NC48>NC7>NC43>NC44>NC49>NC50>NC45>bicalutamide”. In addition, the “decrease in PSA level of LNCaP-AR cells (comparison)” value in [2] (1000 nM) is “greater decrease in PSA level of LNCaP-AR cells than NC43, NC44, and NC50”. The PSA levels entry in data set [2] (LN-AR cells, FIG. 23) was “PSA levels decreased”. Further, in data set [2] (LN/AR cell line, 125 nmol to 1000 nmol), the “PSA level (comparison)” value is “less than the PSA level upon exposure to NC42 and NC46”. Besides, in data set [3], the “pharmacokinetic behavior, residence time in blood” value is reported as “metabolize fast”. The “IC50 (comparison)” value in data set [4] was “much lower than the IC50 for bicalutamide”. The “activity remarks in the ranking” value in data set [5] is reported as “particularly advantageous”.
Regarding `CC1(C)C(=O)N(c2ccc(C#N)c(C(F)(F)F)c2)C(=S)N1CCCCO` [Example 29, 4-[3-(4-hydroxybutyl)-4,4-dimethyl-5-oxo-2-thioxoimidazolidin-1-yl]-2-trifluoromethylbenzonitrile, reference compound], the “agonistic activity on AR response reporter” value in data set [6] is “strongly activated AR”. For the same compound, the “agonistic activity on secreted PSA” value in data set [7] is on record as “stimulated PSA expression”. In data set [8] (LNCaP-AR, 100 pM R1881, two days, No = did not inhibit AR response reporter), the “IC50 (nM) Reporter” value is “No (*)”.
Turning to `Cc1ccc(N2C(=S)N(c3ccc(C#N)c(Cl)c3)C(=O)C2(C)C)cc1` [NC107], the “activity remarks in the ranking” value in data set [5] was “very poor activity”.
As for `CN1C(=S)N(c2ccc(C#N)c(C(F)(F)F)c2)C(=O)C12CCC2` [NC24, 4-(5-methyl-8-oxo-6-thioxo-5,7-diazaspiro[3.4]oct-7-yl)-2-trifluoromethylenzonitrile, reference compound], the “agonistic activity on AR response reporter” value in data set [6] is listed as “strongly activated AR”. Also, the “agonistic activity on secreted PSA” value in data set [7] is “stimulated PSA expression”. Moreover, in [8], the “inhibitory activity on AR response reporter” value was “no inhibitory activities”.
As to `CN1C(=O)N(c2ccc(C#N)c(C(F)(F)F)c2)C(=O)C12CCC2` [NC25, 4-(5-methyl-6,8-dioxo-5,7-diazaspiro[3.4]oct-7-yl)-2-trifluoromethylbenzonitrile, reference compound], the “agonistic activity on AR response reporter” value in data set [6] was “strongly activated AR”. In addition, the “agonistic activity on secreted PSA” value in data set [7] was “stimulated PSA expression”. The “inhibitory activity on AR response reporter” value in data set [8] was “no inhibitory activities”.
Regarding `CNC(=O)c1ccc(N2C(=S)N(c3ccc(C#N)c(C(F)(F)F)c3)C(=O)C23CCC3)cc1` [NC77], the “luciferase activity (comparison)” value in data set [9] is recorded as “less than the luciferase activity upon exposure to NC98”. In addition, in data set [8] (125 nM to 1000 nM, FIG. 3), the “luciferase activity in LNCaP-AR cells” value is “acted to reduce luciferase activity”. Also, the “rank by relative luciferase activity, most active to least active” value in [8] (500 nM, FIG. 3) is reported as “NC67>NC68>NC66>NC69>NC77=NC53>bicalutamide”.
For `C[C@]1(O)CC[C@H]2[C@@H]3CCC4=CC(=O)CCC4=C3C=C[C@@]21C` [R1881, methyltrienolone, reference compound], the “androgen receptor nuclear translocation” value in data set [10] is “nuclear translocation of the androgen receptor occurred”. Besides, the “induction of secreted PSA level” value in [2] is recorded as “strongly induced”.
On to `Cc1ccc(N2C(=S)N(c3ccc(C#N)c(C(F)(F)F)c3)C(=O)C2(C)C)cc1` [NC2, 4-[3-(4-methylphenyl)-4,4-dimethyl-5-oxo-2-thioxoimidazolidin-1-yl]-2-trifluoromethyl-benzonitrile], for which the growth effect entry in data set [11], in [13] and in data set [14] was “no growth effect” throughout. Besides, the growth inhibitory effect result in data set [12] is “no growth inhibitory effect”.
For `Cc1ccc(N2C(=S)N(c3ccc(C#N)c(I)c3)C(=O)C2(C)C)cc1` [NC63], in [5], the “activity remarks in the ranking” value is “good activity”.
